One data set concerns the target T1, alpha2B receptor (Homo sapiens, UniProt P18089).
T1 construct: expressed in transfected cells; host or cells: NIH-3T3
T1 sequence (P18089 1-450): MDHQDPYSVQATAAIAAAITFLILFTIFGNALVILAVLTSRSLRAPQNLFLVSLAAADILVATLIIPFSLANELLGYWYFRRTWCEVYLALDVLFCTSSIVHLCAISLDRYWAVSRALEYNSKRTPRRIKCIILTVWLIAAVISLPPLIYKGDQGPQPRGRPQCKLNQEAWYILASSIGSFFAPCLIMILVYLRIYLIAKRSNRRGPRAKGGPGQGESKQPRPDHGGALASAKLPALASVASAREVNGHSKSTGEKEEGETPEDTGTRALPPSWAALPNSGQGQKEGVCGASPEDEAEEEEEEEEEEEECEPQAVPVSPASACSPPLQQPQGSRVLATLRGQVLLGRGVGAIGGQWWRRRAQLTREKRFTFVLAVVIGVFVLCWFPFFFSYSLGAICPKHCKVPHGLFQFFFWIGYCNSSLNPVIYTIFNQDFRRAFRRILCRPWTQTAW
Put plainly: Receptor Selection and Amplification Technology (RSAT) assay, α2B. The format is cell-based. To be noted: relative to brimonidine (standard full agonist), NA = not active at concentrations less than 10 micromolar. The protocol:
(§1) Receptor Selection and Amplification Technology (RSAT) Assay
(§2) The RSAT assay measures a receptor-mediated loss of contact inhibition that results in selective proliferation of receptor-containing cells in a mixed population of confluent cells. The increase in cell number is assessed with an appropriate transfected marker gene such as β-galactosidase, the activity of which can be easily measured in a 96-well format. Receptors that activate the G protein, Gq, elicit this response. Alpha2 receptors, which normally couple to Gi, activate the RSAT response when coexpressed with a hybrid Gq protein that has a Gi receptor recognition domain, called Gq/i5.
(§3) NIH-3T3 cells are plated at a density of 2×10^6 cells in 15 cm dishes and maintained in Dulbecco's modified Eagle's medium supplemented with 10% calf serum. […] After washing with phosphate-buffered saline, β-galactosidase enzyme activity is determined by adding 200 μl of the chromogenic substrate (consisting of 3.5 mM o-nitrophenyl-β-D-galactopyranoside and 0.5% nonidet P-40 in phosphate buffered saline), incubating overnight at 30° C. and measuring optical density at 420 nm. The absorbance is a measure of enzyme activity, which depends on cell number and reflects a receptor-mediated cell proliferation. […]

For another data set, the target named is T2, alpha2C receptor (Homo sapiens, UniProt P18825).
T2 construct: expressed in transfected cells; host or cells: NIH-3T3
T2 sequence (P18825 1-462): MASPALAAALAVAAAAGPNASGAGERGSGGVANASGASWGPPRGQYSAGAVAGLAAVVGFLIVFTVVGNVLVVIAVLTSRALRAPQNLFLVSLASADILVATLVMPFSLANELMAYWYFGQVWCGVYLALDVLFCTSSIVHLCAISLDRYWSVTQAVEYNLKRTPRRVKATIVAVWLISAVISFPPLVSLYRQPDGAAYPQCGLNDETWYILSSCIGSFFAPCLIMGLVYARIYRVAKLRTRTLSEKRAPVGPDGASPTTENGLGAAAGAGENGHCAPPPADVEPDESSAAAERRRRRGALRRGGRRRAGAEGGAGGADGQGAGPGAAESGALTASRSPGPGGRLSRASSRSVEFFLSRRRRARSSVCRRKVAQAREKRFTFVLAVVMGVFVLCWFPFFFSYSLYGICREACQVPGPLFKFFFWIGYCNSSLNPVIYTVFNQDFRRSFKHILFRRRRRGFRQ
The experiment in a line: Receptor Selection and Amplification Technology (RSAT) assay, α2C. The format is cell-based. To be noted: relative to brimonidine (standard full agonist), NA = not active at concentrations less than 10 micromolar. The protocol:
as §1, §2, §3

In another data set the target is T3, alpha2A receptor (Homo sapiens, UniProt P08913).
T3 construct: expressed in transfected cells; host or cells: NIH-3T3
T3 sequence (P08913 1-465): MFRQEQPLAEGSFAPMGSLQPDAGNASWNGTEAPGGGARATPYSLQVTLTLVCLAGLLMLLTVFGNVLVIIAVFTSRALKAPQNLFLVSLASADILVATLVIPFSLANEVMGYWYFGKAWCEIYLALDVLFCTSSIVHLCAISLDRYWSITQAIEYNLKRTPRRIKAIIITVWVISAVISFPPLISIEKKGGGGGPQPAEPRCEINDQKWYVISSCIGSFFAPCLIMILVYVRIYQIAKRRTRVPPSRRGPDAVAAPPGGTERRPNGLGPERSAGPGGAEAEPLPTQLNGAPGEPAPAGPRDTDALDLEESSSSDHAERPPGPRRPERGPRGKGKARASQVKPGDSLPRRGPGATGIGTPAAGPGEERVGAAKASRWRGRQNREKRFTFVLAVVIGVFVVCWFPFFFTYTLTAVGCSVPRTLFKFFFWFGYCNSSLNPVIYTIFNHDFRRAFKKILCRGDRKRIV
Put plainly: Receptor Selection and Amplification Technology (RSAT) assay, α2A. It is filed as cell-based. Conditions: relative to brimonidine (standard full agonist), NA = not active at concentrations less than 10 micromolar. How it is done:
as §1, §2, §3

Data set [1] concerns locomotor activity. The experiment in a line: Sedation model, rats (locomotor/exploratory activity). The format is in vivo. Conditions: for rat locomotor activity: 30 min following dosing (FIG. 3). How it is done: (§4) The utility of alpha2-adrenergic agonists is limited by a range of side effects, particularly sedation and cardiovascular depression. The sedative activity of the compounds is assessed by measuring their ability to reduce the exploratory activity of mice and rats when placed in a dark chamber 30 min following dosing. The animal's activity is determined automatically by placing it in a digicom analyzer chamber (Omnitech Electronic). These chambers have photocells criss-crossing the box that are broken as the animal moves around. The computer analyzes this movement and records total activity over a 5-min time period. […] This represents greater than a 300-fold margin of safety (FIG. 4).

Data set [2] concerns locomotor activity. The experiment in a line: Sedation model, mice (locomotor/exploratory activity). It is filed as in vivo. To be noted: oral dose of 3 mg/kg. The protocol: as §4

The structures appear in SMILES notation.

Take `OCC1=CCC[C@@H](Cc2c[nH]c(=S)[nH]2)C1` (single isomer, unassigned) [Compound 5]: on alpha2B receptor, the “Intrinsic activity α2B” value was determined as 1.0. Also, on alpha2C receptor, the “Intrinsic activity α2C” value worked out at 1.1. Moreover, on alpha2A receptor, the “Intrinsic activity α2A” value amounted to 0.9.
Turning to `OCC1=CCCC(Cc2c[nH]c(=S)[nH]2)C1` (stereo not drawn) [Compound 1, 4-(3-Hydroxymethyl-cyclohex-3-enylmethyl)-1,3-dihydro-imidazole-2-thione], the “sedation / locomotor activity, rats” value in the data set with locomotor activity [1] (general statement (FIG. 3)) was “does not sedate”. Besides, the rat locomotor activity result in the data set with locomotor activity [1] (intraperitoneal doses up to at least 3 mg/kg) and in the data set on locomotor activity [1] (oral doses up to at least 10 mg/kg) was “did not decrease” each time. Besides, the margin of safety in the data set with locomotor activity [1] (non-sedating dose in rats (ip 3 mg/kg, oral 10 mg/kg) versus active dose) is ≥ 30 fold.
In the case of `O=C(CC1CCCC1)OCC1=CCCC(Cc2c[nH]c(=S)[nH]2)C1` (stereo not drawn) [Compound 3, cyclopentyl-acetic acid 5-(2-thioxo-2,3-dihydro-1H-imidazol-4-ylmethyl)-cyclohex-1-enylmethyl ester], the “sedation, mice” value in the data set on locomotor activity [2] was “did not sedate”. Moreover, the “sedation, rats” value in the data set on locomotor activity [1] (oral dose of 3 mg/kg) is on record as “did not sedate”.

The record behind these values is patent publication US7390829B2, “Alpha-2 adrenergic agonists” (Allergan, Inc., priority 2005, dated 2008).
